pEC50: −log10 of the molar value.
Legend:
[1] = system: follicular lymphoma cell lines (RL and DoHH2); test: 8-day cytotoxicity assay (cell titer glo), follicular lymphoma lines; type: cell-based; conditions: Compound A 200 nM for 8 days + obinutuzumab (GA101) 0 to 10,000 ng/mL last 24 hours; FL lines
Description: (§1) In vitro combination efficacy studies were performed with Compound A and obinutuzumab (GA101). Two follicular (RL and DoHH2) and two diffuse large B cell lymphoma (DLBCL) (Oci-Ly10, WSU-DLCL2) cell lines were treated with either single agent Compound A (200 nM), single agent obinutuzumab (0 to 10,000 ng/mL) or in combination in 8-day cytotoxicity assays (cell titer glo). In both the single agent and combination studies, the cells were treated with Compound A for 8 days and with obinutuzumab treatment on the last 24 hours in the combination studies.

[2] = system: DLBCL cell lines (Oci-Ly10, WSU-DLCL2); test: 8-day cytotoxicity assay (cell titer glo), DLBCL lines; type: cell-based; conditions: Compound A 200 nM for 8 days + obinutuzumab (GA101) 0 to 10,000 ng/mL last 24 hours
Description: as §1

[3] = system: DLBCL cell lines; conditions: lenalidomide with ibrutinib (Yang, 2012); cited from earlier work
[4] = cited from earlier work
[5] = system: human NK cell; test: NK cell IFN-γ production in response to immobilized Ig-G and IL-2 stimulation; type: cell-based; conditions: read-out: EC50, enhancement of NK cell IFN-γ production
Description: Without being bound by a particular theory, Compound A is believed to enhance the human NK cell killing function, antibody-dependent cellular cytotoxicity (ADCC), in rituximab coated lymphoma cell lines.

[6] = system: DoHH2 lymphoma xenograft; test: DoHH2 lymphoma xenograft model; type: in vivo
Description: (§2) In combination with rituximab, Compound A at 3 and 30 mg/kg induced complete regressions in 60% and 90% of animals, respectively.

[7] = system: WSU-DLCL2 lymphoma xenograft; test: WSU-DLCL2 lymphoma xenograft model; type: in vivo; conditions: for complete regressions, % of animals: WSU-DLCL2
Description: as §2

[8] = First-in-human study of Compound A, Part A dose escalation; type: in vivo; conditions: for dose limiting toxicities (DLT) observed: in vivo
Description: (§3) The first-in-human study of Compound A is being conducted in a broad tumor population including diverse solid tumors, lymphoma and MM. Part A of the study used a Compound A starting dose of 0.5 mg QD on a continuous dosing schedule. Using allometric scaling, this dose represented a dose ˜20-fold below the highest non-severely toxic dose (HNSTD) in primates based on preclinical toxicology studies. Part A dose escalation proceeded in 0.5 mg increments (0.5, 1.0, 1.5, 2.0, 2.5, 3.0, 3.5 mg) and established the nontolerated dose (NTD) at 3.5 mg QD and the MTD at 3.0 mg QD. […] In Part B, parallel expansion cohorts (14 to 20 subjects each) in 4 tumor indications (MM, NHL, HCC and gliomas) were subsequently enrolled at a dose of 3.0 mg QD. Given that subjects with CLL may be more sensitive to the side effects of immunomodulatory agents (IMiDs®) and other cereblon-binding agents, and the clinical safety, PK and pharmacodynamics data observed with Compound A to date, a lower Compound A starting dose of 0.25 mg QD was used in a CLL population.

[9] = in vivo
Description: as §3

[10] = system: panel of lymphoma and MM cell lines; test: Immunomodulatory and anti-proliferative activity against a panel of cell lines; type: cell-based
Description: (§4) A second consideration for the starting dose of Compound A is based on the relative in vitro potency between Compound A and lenalidomide and the relative human safety and tolerability of lenalidomide in CLL. […] Clinical exploration of lenalidomide in CLL has established 5 mg to be a tolerable starting dose.

[11] = system: human CLL cells; test: Primary cultures of human CLL cells; type: cell-based; conditions: in 70% of samples tested
Description: as §4

[12] = system: TNF-α; test: Cytokine inhibition in LPS-stimulated hPBMC and human whole blood: TNF-α; type: cell-based
Description: (§5) TNF-α is an inflammatory cytokine produced by macrophages and monocytes during acute inflammation. TNF-α is responsible for a diverse range of signaling events within cells. TNF-α may play a pathological role in cancer. Without being limited by theory, one of the biological effects exerted by Compound A is the reduction of synthesis of TNF-α. Compound A enhances the degradation of TNF-α mRNA.

[13] = system: IL-1β; test: Cytokine inhibition in LPS-stimulated hPBMC and human whole blood: IL-1β; type: cell-based
Description: as §5

[14] = system: IL-10; test: Cytokine stimulation in LPS-stimulated hPBMC and human whole blood: IL-10; type: cell-based
Description: as §5

[15] = system: T cells; test: T cell co-stimulation; type: cell-based; conditions: under appropriate conditions
[16] = continuous dosing, solid tumors, lymphoma and MM

GA101: humanized type II monoclonal antibody that binds to CD20 and triggers destruction of B-cells
combination effect on cytotoxicity [1]: synergistic | combination effect on cytotoxicity [2]: additive

Nc1cccc2c1CN(C1CCC(=O)NC1=O)C2=O (centres unmarked) [lenalidomide]
combination effect of lenalidomide and ibrutinib on killing of DLBCL cell lines [3]: synergistically kill | effect of intermittent dosing schedule in CLL ([4]; 21 of 28 day cycles, during the 7 day drug holidays (Chen, 2011)): rebound lymphocytosis | tolerable starting dose in CLL ([4]; CLL patients): 5 mg

Cc1nc2cccc(N)c2c(=O)n1C1CCC(=O)NC1=O (centres unmarked) [Compound A, 3-(5-amino-2-methyl-4-oxo-4H-quinazolin-3-yl)-piperidine-2,6-dione]
pEC50 [5]: 8.82 | tumor growth inhibition, single agent ([6]; Compound A single agent at 3 and 30 mg/kg): modest dose-dependent tumor growth inhibition | tumor growth delay, combination with rituximab ([6]; in combination with rituximab): significantly and dose-dependently delayed tumor growth | complete regressions, % of animals ([7]; Compound A 3 mg/kg in combination with rituximab): 60% | complete regressions, % of animals ([7]; Compound A 30 mg/kg in combination with rituximab): 90% | effect as single agent ([7]; WSU-DLCL2 study, Compound A single agent): minimal effects | tumor growth inhibition, administered with rituximab ([7]; WSU-DLCL2 xenograft, administered with rituximab): dose-dependent tumor growth inhibition | combination effect on cytotoxicity [1]: synergistic | combination effect on cytotoxicity [2]: additive | MTD [8, 16]: 3.0 mg QD | nontolerated dose (NTD) [8, 16]: 3.5 mg QD | dose limiting toxicities (DLT) observed ([8]; human): Grade 3 fever and fatigue and Grade 3 muscle weakness | dose limiting toxicities (DLT) observed [8]: No DLTs | starting dose relative to highest non-severely toxic dose (HNSTD) in primates, fold below [9]: ~20 fold | potency relative to lenalidomide, immunomodulatory and anti-proliferative activity [10]: ~10 fold | potency relative to lenalidomide [11]: ~5 fold | inhibition of TNF-α [12]: markedly inhibits | inhibition of IL-1β [13]: potently inhibits | effect on IL-10 [14]: stimulates | T cell co-stimulation, cell proliferation [15]: increased cell proliferation in a dose dependent manner

C=CC(=O)N1CCC[C@@H](n2nc(-c3ccc(Oc4ccccc4)cc3)c3c(N)ncnc32)C1 [ibrutinib]
combination effect of lenalidomide and ibrutinib on killing of DLBCL cell lines [3]: synergistically kill
